Assay results reported in patent US8796249B2, “TGR5 modulators and methods of use thereof” (Intercept Pharmaceuticals, Inc., priority 2008, dated 2014).
pEC50: −log10 of the molar value. Read-outs that look alike come from different tables or passages of the source. Marks after values point to notes of the source that are not given here. One block for each molecule: values may come before it.

Columns and labels:
[1] = biological target: T1, LXRα (Homo sapiens, UniProt Q13133); assay: LXR coactivator recruitment (alphascreen); assay type: biochemical; conditions: ref standard T0901317
T1 sequence (Q13133 1-447): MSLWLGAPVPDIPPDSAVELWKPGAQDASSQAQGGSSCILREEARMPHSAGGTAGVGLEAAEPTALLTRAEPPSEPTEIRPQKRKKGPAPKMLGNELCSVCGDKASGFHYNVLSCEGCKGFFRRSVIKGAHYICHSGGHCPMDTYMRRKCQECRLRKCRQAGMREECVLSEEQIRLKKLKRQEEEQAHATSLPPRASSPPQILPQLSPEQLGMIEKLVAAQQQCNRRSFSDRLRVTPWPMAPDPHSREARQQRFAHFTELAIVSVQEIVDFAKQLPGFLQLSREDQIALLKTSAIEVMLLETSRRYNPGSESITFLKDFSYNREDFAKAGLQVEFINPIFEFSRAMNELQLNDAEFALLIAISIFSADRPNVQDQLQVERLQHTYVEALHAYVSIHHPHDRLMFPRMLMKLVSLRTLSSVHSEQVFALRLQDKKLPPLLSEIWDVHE
Description: (§1) The selectivity of compounds of the invention was evaluated using assay methods known in the art. Specifically, the following assay methods were used: • FXR and LXR: Coactivator Recruitment (alphascreen); • TGR5: cAMP level on human intestinal cell line (NCI-H716); • PXR: Ligands Competition assay (Binding Assay) • CAR: Coactivator Recruitment (Lanthascreen)

[2] = biological target: T2, PXR (Homo sapiens, UniProt O75469); assay: PXR ligands competition assay (binding assay); conditions: ligands competition assay (binding assay); ref standard SR-12183
T2 sequence (O75469 1-434): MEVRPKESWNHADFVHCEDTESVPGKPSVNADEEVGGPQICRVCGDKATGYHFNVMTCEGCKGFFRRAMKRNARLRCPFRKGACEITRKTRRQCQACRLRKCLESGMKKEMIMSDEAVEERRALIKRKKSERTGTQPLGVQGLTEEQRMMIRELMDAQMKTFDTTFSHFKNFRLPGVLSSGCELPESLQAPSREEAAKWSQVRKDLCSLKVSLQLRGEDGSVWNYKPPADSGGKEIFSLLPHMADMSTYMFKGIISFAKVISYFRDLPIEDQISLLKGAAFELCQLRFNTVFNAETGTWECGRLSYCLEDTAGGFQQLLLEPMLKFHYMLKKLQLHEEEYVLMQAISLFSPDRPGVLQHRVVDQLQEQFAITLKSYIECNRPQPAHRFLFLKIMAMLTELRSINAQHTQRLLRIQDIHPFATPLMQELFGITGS
Description: as §1

[3] = tested on: HepG2 cell; assay: HepG2 cell cytotoxicity, ATP decrease; assay type: cell-based
Description: Compounds of the invention were evaluated for cytotoxicity using standard methods known in the art. Specifically, cytotoxicity was evaluated using HEPG2 cells and monitoring ATP decrease and determining the EC50 value. […]

[4] = BA as protonated species; values from literature; cited from earlier work
[5] = […] NaCl water solution; values from literature; cited from earlier work
[6] = biological target: T3, CAR (Homo sapiens, UniProt Q14994); assay: CAR coactivator recruitment (Lanthascreen); assay type: biochemical
T3 sequence (Q14994 1-352): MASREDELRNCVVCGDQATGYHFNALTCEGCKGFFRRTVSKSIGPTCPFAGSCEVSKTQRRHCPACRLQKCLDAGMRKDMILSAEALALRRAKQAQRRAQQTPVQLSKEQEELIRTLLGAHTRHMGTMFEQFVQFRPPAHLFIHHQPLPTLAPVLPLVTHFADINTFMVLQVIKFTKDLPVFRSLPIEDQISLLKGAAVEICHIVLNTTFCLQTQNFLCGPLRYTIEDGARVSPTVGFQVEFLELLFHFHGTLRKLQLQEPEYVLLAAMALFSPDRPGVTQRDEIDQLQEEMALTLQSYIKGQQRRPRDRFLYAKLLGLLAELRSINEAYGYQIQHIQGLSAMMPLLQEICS
Description: as §1

[7] = biological target: T4, PPARδ (Homo sapiens, UniProt Q03181); assay: NR selectivity assay PPARδ; conditions: unnamed ref standard 0.004 μM
T4 sequence (Q03181 1-441): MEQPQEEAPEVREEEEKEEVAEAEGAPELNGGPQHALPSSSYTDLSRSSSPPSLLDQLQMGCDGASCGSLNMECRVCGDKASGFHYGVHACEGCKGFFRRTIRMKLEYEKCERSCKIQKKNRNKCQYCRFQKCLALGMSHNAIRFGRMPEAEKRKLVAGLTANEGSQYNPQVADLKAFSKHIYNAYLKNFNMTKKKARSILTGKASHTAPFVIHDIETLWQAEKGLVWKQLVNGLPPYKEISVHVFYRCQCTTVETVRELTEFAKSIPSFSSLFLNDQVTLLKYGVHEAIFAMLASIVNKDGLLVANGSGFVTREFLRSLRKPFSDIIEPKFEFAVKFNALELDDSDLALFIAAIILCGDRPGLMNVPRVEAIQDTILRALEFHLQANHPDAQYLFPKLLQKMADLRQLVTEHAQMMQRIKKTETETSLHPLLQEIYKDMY

[8] = biological target: T5, VDR (Homo sapiens, UniProt P11473); assay: NR selectivity assay VDR; conditions: unnamed ref standard 0.005 μM
T5 sequence (P11473 1-427): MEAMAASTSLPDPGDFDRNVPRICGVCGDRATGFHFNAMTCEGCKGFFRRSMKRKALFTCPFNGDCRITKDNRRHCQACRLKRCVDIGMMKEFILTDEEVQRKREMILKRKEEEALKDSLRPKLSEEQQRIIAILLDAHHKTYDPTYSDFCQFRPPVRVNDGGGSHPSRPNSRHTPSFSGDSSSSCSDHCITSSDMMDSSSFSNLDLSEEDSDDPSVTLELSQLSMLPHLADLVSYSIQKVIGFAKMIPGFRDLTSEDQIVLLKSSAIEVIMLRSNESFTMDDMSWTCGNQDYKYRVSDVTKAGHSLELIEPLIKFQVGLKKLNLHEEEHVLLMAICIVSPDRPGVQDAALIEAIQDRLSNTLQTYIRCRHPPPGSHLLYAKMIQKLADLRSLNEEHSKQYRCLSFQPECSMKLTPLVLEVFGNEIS

[9] = Critical micellar concentration by surface tension (maximum bubble-pressure method); assay type: physicochemical; conditions: […] NaCl water solution
Description: The critical micellar concentration (CMC) was determined by surface tension (ST) measurements using a maximum bubble-pressure method which give surface tension values slightly affected by potential impurities like static methods are. The tensiometer was a […] Research Corp., Milwaukee, Wis.) equipped with two glass probes of 0.5 and 4.0 mm diameters connected to a source of nitrogen. The bubble frequency was 1 bubble/second in distilled water at 26° C. (P=2.7 atm) and the calibration was made with double-distilled water and methanol. The surface tension of BA sodium salts solutions in NaCl 0.15 M was measured at various concentrations inside the 0.13-50 mM range. The surface tension values were plotted against the logarithm of the bile salt concentration; the regression lines corresponding to the two parts of the curve (monomeric and micellar phases) were calculated using the method of least squares, and the intersection of the lines was taken as the CMC value. From the ST vs concentration curves the value of the surface tension at the CMC (equilibrium between monomers and multimers species) was also calculated giving information about the detergency power which is related to the size of the micelles with associate surface tension lowering capacity. The CMC was evaluated by surface tension measurements in non equilibrium conditions i.e. in conditions that impurities slightly affect the surface tension results (FIG. 1).

[10] = 1-Octanol/water partition coefficient (shake-flask); assay type: physicochemical; conditions: ionized species, pH 8
Description: Since the sulphate and sulphonated analogues are always ionised at all pH values the octanol/water partition coefficient was measured for all molecules in ionized form. 1-Octanol/water partition coefficient (log P) was evaluated using a conventional shake-flask procedure. […] The aqueous buffer was previously pre-saturated with 1-octanol, 5 ml of 1-octanol pre-saturated with water was then added and the samples were left to equilibrate for 2 weeks under continuous stirring at room temperature After centrifugation the two phases were carefully separated. BA concentration in the water phase was measured with HPLC-ESI ? MS/MS using C18 column (150 mm×2 mm i.d., 4 μm) and, as mobile phases, water containing 15 mM acetic acid pH 5 and acetonitrile. The flow rate was 150 μal/min and the column was maintained at 45° C. The mass spectrometry acquisition was performed in the multiple reaction monitoring mode using the ESI source in negative ionization.

[11] = biological target: T6, bovine serum albumin (Bos taurus, UniProt P02769); assay: Albumin binding by equilibrium dialysis; assay type: in vitro ADME; conditions: 100 μM BA in 5% bovine serum albumin-saline, pH 7.2
T6 construct: dissolved at a concentration of 100 μM in 5% bovine serum albumin-saline solution (pH 7.2); from tissue; host or cells: bovine serum (only from the protein's name)
T6 sequence (P02769 25-607): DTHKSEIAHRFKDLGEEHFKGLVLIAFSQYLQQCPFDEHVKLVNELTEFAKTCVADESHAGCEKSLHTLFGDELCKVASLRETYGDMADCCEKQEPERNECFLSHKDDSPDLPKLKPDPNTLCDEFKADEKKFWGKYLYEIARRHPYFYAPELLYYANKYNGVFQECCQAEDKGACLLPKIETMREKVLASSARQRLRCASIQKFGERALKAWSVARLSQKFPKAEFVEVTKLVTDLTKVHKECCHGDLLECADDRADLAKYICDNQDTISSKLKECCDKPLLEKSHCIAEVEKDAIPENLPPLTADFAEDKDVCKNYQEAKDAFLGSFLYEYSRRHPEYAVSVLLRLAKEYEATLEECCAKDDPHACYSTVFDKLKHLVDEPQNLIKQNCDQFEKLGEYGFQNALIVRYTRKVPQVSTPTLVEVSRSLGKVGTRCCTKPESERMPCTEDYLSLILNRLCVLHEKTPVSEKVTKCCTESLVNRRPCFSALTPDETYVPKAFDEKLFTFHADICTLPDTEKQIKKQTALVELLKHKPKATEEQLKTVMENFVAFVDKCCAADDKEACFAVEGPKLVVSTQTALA
Description: The extent of albumin binding was evaluated by equilibrium dialysis at a fixed BA-albumin ratio. BA was dissolved at a concentration of 100 μM in 5% bovine serum albumin-saline solution (pH 7.2) and left to stand for 24 h at 25° C. Two milliliters of this solution was dialyzed in cellulose sacs having a molecular weight cut-off of 12-14,000 against 25 ml of saline solution. The system was equilibrated by mechanical gently shaking for 72 h at 25° C. BA concentrations of the dialyzed solution (corresponding to the free unbound fraction) and of the starting solution were determined with HPLC-ESI-MS/MS in the same conditions of the previous analysis. The percent of albumin binding was calculate from the initial BA concentration and from the unbound concentration in the dialyzed fraction. All these compounds never less present an albumin binding compatible with a relatively fast hepatic uptake, similarly to natural occurring BA. Accordingly different kinetics (slower) of the liver uptake is expected.

[12] = tested on: Intestinal Bacteria; assay: In vitro metabolic stability in human stool culture; conditions: human stool cultures
Description: Homogenized fresh human stools (500 mg) were transferred into sterile vials to which 5 mL of sterilized chopped meat-glucose medium (Scott Lab., Fiskville, R.I.) was added. BA were then added at a final concentration of 0.05 mM. Vials were incubated at 37° C.; then, at 0, 1, 2, 4, 8 and 24 h after the addition of the BA, the reaction was stopped with 150 μL of 30% KOH. The samples were centrifuged at 3500 rpm for 10 min; from the supernatant the BA were isolated by C-18 solid-phase extraction and analyzed by TLC and HPLC-ES-MS/MS.
Thin-layer chromatography (TLC), utilizing silica gel 0.25 mm thickness plates (Merck, Darmstat, Germany), was employed as the first screening test. The solvent system used for the separation of conjugated BA was composed of propionic acid/isoamyl acetate/water/N-propanol (3:4:1:2, v/v/v/v; solvent I), and that of the unconjugated BA was acetic acid/carbon tetrachloride/isopropyl ether/isoamyl acetate/water/N-propanol/benzene (1:4:6:8:2:2, v/v/v/v/v/v; solvent II).

[13] = Previous study of oleanolic acid (OA) in animals; assay type: in vivo
Description: Therefore, OA is administered at the dose of 50 mg/kg/d in this study.

[14] = Water solubility; assay type: physicochemical; conditions: BA as protonated species, 0.1 M HCl, pH 1; hs = highly soluble, not evaluated
Description: Solid compound (BA) was suspended in 5 ml of 0.1 M HCl. […] The flow rate was 150 μl/min. The mass spectrometry acquisition was performed in the multiple reaction monitoring mode using the ESI source in negative ionization. Water solubility was expressed as μmol/liter.
The water solubility was measured for the insoluble protonated species of carboxylated bile acids at a pH 1.

[15] = ionized species; values from literature; cited from earlier work
[16] = biological target: T6, bovine serum albumin; conditions: values from literature; cited from earlier work
[17] = coactivator recruitment (Lanthascreen), ref standard CITCO

Compound: C[C@H](CCC(=O)O)[C@H]1CC[C@H]2[C@@H]3[C@H](O)C[C@@H]4C[C@H](O)CC[C@]4(C)[C@H]3CC[C@]12C [CDCA, chenodeoxycholic acid]
LXRα EC50 [1]: No | pEC50 [6]: < 3.60 | PPARδ EC50 [7]: No | VDR EC50 [8]: No | CMC […] Na+ [9]: 3.2 mM | STCMC (surface tension at CMC) [9]: 45.5 Dyne/cm | LogPA- (1-octanol-water partition coefficient) [10]: 2.2 | Albumin Binding [11]: 93% | half-life time [12]: almost one hour

Compound: C[C@H](CCC(=O)O)[C@H]1CC[C@H]2[C@@H]3CC[C@@H]4C[C@H](O)CC[C@]4(C)[C@H]3CC[C@]12C [LCA, lithocholic acid]
LXRα EC50 [1]: No | CAR EC50 [6, 17]: No | PPARδ EC50 [7]: No

Compound: CN[C@@H]1C[C@H]2O[C@@](C)([C@@H]1OC)n1c3ccccc3c3c4c(c5c6ccccc6n2c5c31)C(=O)NC4 [Staurosporine, reference compound]
pEC50 ([3]; human): 4.82

Compound: C[C@H](CCC(=O)O)[C@H]1CC[C@H]2[C@@H]3[C@@H](O)C[C@@H]4C[C@H](O)CC[C@]4(C)[C@H]3CC[C@]12C [UDCA, reference compound]
LXRα EC50 [1]: No | pEC50 [6, 17]: < 3.60 | PPARδ EC50 [7]: No | VDR EC50 [8]: No | Ws (water solubility) [14]: 7.5 µM | CMC […] Na+ [9]: 6.0 mM | STCMC (surface tension at CMC) [9]: 50.5 Dyne/cm | LogPA- (1-octanol-water partition coefficient) [10]: 2.2 | Albumin Binding [11]: 94% | pEC50 [3]: < 3.00

Now from value to molecule, other results behind:

LXRα EC50 [1]: No | PXR EC50 [2]: No
Compound: C[C@H](CCC(=O)O)[C@H]1CC[C@H]2[C@@H]3[C@H](O)C[C@@H]4C[C@H](O)CC[C@]4(C)[C@H]3C[C@H](O)[C@]12C [CA]
pEC50 ([3]; read-out: HepG2 cell Cytotoxicity ATP decrease EC50): < 3.00 | Ws (water solubility) [4]: 273* μM | CMC […] Na+ [5]: 11* mM

food aversion [13]: did not cause food aversion
Compound: CC1(C)CC[C@]2(C(=O)O)CC[C@]3(C)C(=CC[C@@H]4[C@@]5(C)CC[C@H](O)C(C)(C)[C@@H]5CC[C@]43C)[C@@H]2C1 [OA, oleanolic acid]
toxicity ([13]; dose of 100 mg/kg/day): some signs of toxicity | tolerability ([13]; lower dose than 100 mg/kg/day): well tolerated

Ws (water solubility) [14]: hs
Compound: C[C@H](CCC(=O)NCCS(=O)(=O)O)[C@H]1CC[C@H]2[C@@H]3[C@H](O)C[C@@H]4C[C@H](O)CC[C@]4(C)[C@H]3CC[C@]12C [TCDCA]
CMC […] Na+ [5]: 3.0* mM | LogPA- (1-octanol-water partition coefficient) [15]: 0.9* | Albumin Binding [16]: 70* %

Ws (water solubility) [14]: hs
Compound: C[C@H](CCC(=O)NCCS(=O)(=O)O)[C@H]1CC[C@H]2[C@@H]3[C@@H](O)C[C@@H]4C[C@H](O)CC[C@]4(C)[C@H]3CC[C@]12C [TUDCA]
CMC […] Na+ [5]: 2.2* mM | LogPA- (1-octanol-water partition coefficient) [15]: 1.1* | Albumin Binding [16]: 67* %
